Laboratory results as given in patent US12569498B2, “Methods and compositions for the prevention and treatment of ischemia reperfusion injury and infection” (CHILDREN'S NATIONAL MEDICAL CENTER, priority 2019, dated 2026).
Entries after “also recorded” stand apart in the source; their conditions may differ.

Assays:
[1] = literature, cited from earlier work; for testicular myeloperoxidase activity: acutely; for testicular myeloperoxidase activity / long term spermatogenesis: animal models of testicular torsion
α7nAChR = α7nAChR (Homo sapiens, UniProt P36544); conditions: peak concentrations in smokers / levels with therapeutic dosing in humans (Campling 2013); cited from earlier work
[2] = tested on: adhesion molecules E-selectin, ICAM-1 and VCAM-1; conditions: Saeed 2005; cited from earlier work
[3] = cited from earlier work
[4] = tested on: oxidative stress within the testis; assay: Myeloperoxidase activity and reduced glutathione levels in testis after testicular torsion; assay type: in vivo, CD1 mice; conditions: cytisine an hour prior to onset of torsion; vs untreated controls
Description: Mice underwent testicular torsion as previously described (Lysiak 2001). Briefly, mice were anesthetized with isoflurane over a heating pad. The right testis was delivered through a low scrotal incision and rotated counterclockwise 720 degrees to induce ischemia for 2 hours. […] All animals were injected with long-acting buprenorphine (0.1 mg/kg) for long-term pain control prior to being recovered from anesthesia. […] Mice kept for 30 days after surgery were weighed on a weekly basis.
(§1) Cytisine (Sigma-Aldrich, St. Louis, MO) was administered intraperitoneally at a dose of 0.1 μg/gram either 1 hour before torsion or 1 hour after torsion (1 hour prior to detorsion). Varenicline ([…]) was administered as an intraperitoneal injection one hour after the onset of torsion and then continued every 12 hours for a total of 4 doses.
Tissues were harvested and stored at −80° C. until use. Glutathione reductase activity was measured by use of glutathione reductase assay Kit (Sigma-Aldrich, St. Louis, MO). Testis tissue was homogenized in 5% sulfosalicylic Acid (SSA) solution. Samples were then centrifuged and supernatant was reserved. Supernatants were added to a reaction mixture containing 95 mM potassium phosphate buffer, pH 7.0, 0.95 mM EDTA, 0.038 mg/mL NADPH, 0.031 mg/mL DTNB, 0.115 units/mL glutathione reductase, and 0.24% SSA. Absorbance at 412 nm was recorded. Glutathione results were expressed as nm GSH per mL sample.
Following an ischemic event, the initial inflammatory response is characterized by an increase in oxidative stress and production of reactive oxygen species. In order to determine the effect of cytisine treatment on the level of reactive oxygen species (ROS) following testicular torsion, testicular levels of myeloperoxidase (MPO), a marker of neutrophil activation, and reduced glutathione (GSH) levels (an indirect measure of oxidative stress within the testis) were measured.

[5] = tested on: pro-fibrotic genes Col1, Col3, Vim, SMA; assay: RT-PCR of pro-fibrotic markers in testis 30 days after torsion; assay type: in vivo, CD1 mice; conditions: for relative expression of collagen 1 (Col1) / relative expression of collagen 3 (Col3) / relative expression of smooth muscle actin (Sma) / relative expression of vimentin (Vim): 30 days following torsion, vs untreated
Description: (§2) Mice underwent testicular torsion as previously described (Lysiak 2001). Briefly, mice were anesthetized with isoflurane over a heating pad. The right testis was delivered through a low scrotal incision and rotated counterclockwise 720 degrees to induce ischemia for 2 hours. […] All animals were injected with long-acting buprenorphine (0.1 mg/kg) for long-term pain control prior to being recovered from anesthesia. Mice were euthanized either 18 hours or 30 days following torsion. Mice kept for 30 days after surgery were weighed on a weekly basis.
as §1
RNA was isolated from testis tissue using RNEasy mini kit (Qiagen, Hilden, Germany) using the manufacturer's protocol. RNA concentration was measured with Nanodrop 8000 (Thermo Scientific, Waltham, MA). cDNA was synthesized using Superscript First-Strand Synthesis system for RT-PCR (Invitrogen, Carlsbad, CA) on a GeneAmp PCR System 9700 (Applied Biosystems, Foster City, CA) Real-Real-time PCR was performed using QuantStudio 7 Flex (Applied Biosystems, Foster City, CA). Software Quantstudio Real-Time PCR Software (Thermo Fisher Scientific, Waltham, MA). TaqMan Gene Expression Assays (Applied Biosystems, Foster City, CA). Standard TaqMan primers were used for Col1, Col3, Vim, SMA.

[6] = tested on: CD45+ immune cells in the torsed testis; assay: Flow cytometry of CD45+ immune cell infiltrate in testis after testicular torsion; assay type: in vivo, CD1 mice; conditions: cytisine 0.1 μg/gram i.p. 1 hour before torsion; 18 hours after reperfusion; vs mice without cytisine; P<0.0001
Description: (§3) Unilateral testicular torsion was induced in mature male CD1 mice by rotating the right testicle 720 degrees for 2 hours. Treatment with cytisine or varenicline was initiated one hour prior or one hour after the creation of testicular torsion. Testes were harvested 18 hours and 30 days following reperfusion. The acute inflammatory response was quantified with FACS analysis, […], reduced glutathione levels and quantification of the expression of IRI markers. Long term (30 day) outcomes were assessed by histologic evaluation, quantification of the expression of pro-fibrotic genes and measurement of testicular weight.
Mice underwent testicular torsion as previously described (Lysiak 2001). Briefly, mice were anesthetized with isoflurane over a heating pad. […]
Eighteen hours after reperfusion of the testis in the cytisine group and 48 hours after reperfusion in the varenicline group, bilateral testes were harvested, homogenized and digested with digestion solution containing 0.5% FBS, 20 mM HEPES, RPMI Medium, 0.057 U/ml DNase I, 1 mg/ml collagenase b. Cells were washed, counted with a hemocytometer and 1 million then diluted to 1 million cells per mL. […] For each sample 300,000 live cells were counted using BD FACSCalibur (BD Biosciences, San Jose, CA) and analyzed with FlowJo 9.0 software (TreeStar, Ashland, OR).

[7] = Testis weight vs contralateral testis 30 days after torsion (testicular atrophy); assay type: in vivo, CD1 mice; conditions: 30 days after reperfusion, vs untreated
Description: as §3, §2, §1
The degree of testicular atrophy was determined by comparing the weight of the torsed testis to the contralateral control testis 30 days after reperfusion.

[8] = Masson trichrome staining and ImageJ quantification of collagen in testis 30 days after torsion; assay type: in vivo, CD1 mice; conditions: 30 days following torsion, vs untreated, cytisine p<0.01, varenicline p<0.0001
Description: as §2, §1
Testis tissue was harvested and stored in 70% ethanol. Fixation, embedding, sectioning, and staining were performed by the research pathology core at George Washington University. Sections were cut at a thickness of […]. Tissues were stained for H&E or Masson trichrome. Photographs were scanned at 20× resolution with Olympus VS120 virtual slide microscope system. TIF images were analyzed with ImageJ Fiji software as previously described (Caetano, Fronza et al. 2016). The color deconvolution plugin was used to perform ImageJ analysis on an area measuring 3000 square pixels. Automatic thresholding was performed. The amount of collagen in each area is expressed as the percentage of blue pixels in the image area taken as an average of 3 non-overlapping measurements.

[9] = tested on: CFT073 uropathogenic Escherichia coli (UPEC); conditions: kidneys harvested after the final dose of antibiotics; ceftriaxone 250 mg/kg s.c. twice daily for 5 days
Description: As previously described, female C3H/HeOuJ mice were utilized due to a high incidence of vesicoureteral reflux (VUR) (Li 2017; Murawski 2010; Bowen 2013) and reliable creation of pyelonephritis following bladder inoculation. To initiate pyelonephritis, the bladder was catheterized with a 24-gauge angiocatheter and a total volume of 100 μL of a phosphate-buffered saline containing 108 colony forming units (CFU) of CFT073 uropathogenic Escherichia coli (UPEC) was then instilled. Following the initial bladder inoculation, pyelonephritis was allowed to progress untreated for 5 days.
Following the initial 5-day incubation period, 2 mice were sacrificed to confirm infection. The remaining mice were then treated with ceftriaxone alone (control) or ceftriaxone with varenicline (treatment). All mice received 250 mg/kg of subcutaneous ceftriaxone administered twice daily for a period of 5 days. Animals in the treatment group also received a concurrent twice-daily dose of intraperitoneal varenicline (1 mg/kg) during the first 48 hours of treatment. […] Animals were sacrificed at 14 days following the initial bladder inoculation to assess short-term outcomes, while long-term outcomes were assessed 30 days following initial bladder inoculation.

[10] = Renal scar formation and trichrome collagen quantification after acute pyelonephritis; assay type: in vivo, C3H/HeOuJ mice; conditions: 21 days following completion of antibiotic therapy; varenicline plus ceftriaxone vs ceftriaxone alone; p=0.001
Description: To initiate pyelonephritis, the bladder was catheterized with a 24-gauge angiocatheter and a total volume of 100 μL of a phosphate-buffered saline containing […] colony forming units (CFU) of CFT073 uropathogenic Escherichia coli (UPEC) was then instilled.
Tissues were preserved in formalin for 72 hours then stored in ethanol. Sections were cut to a 5 μm thickness and stained with H&E or Masson trichrome. Photographs were obtained at 20× resolution with Olympus VS120 virtual slide microscope system. The images were then analyzed with ImageJ Fiji software in order to quantify collagen deposition as previously described (Chen 2017). As collagen deposition would be expected as long-term sequelae of IRI, the trichrome stains of the long-term specimen were examined. All artifacts from the staining process as well as gross collecting system were cropped from these images prior to analysis. A color deconvolution plugin was used to separate the trichrome images into the separate colors. Analysis was performed based upon the percentage of deposition of collagen in the green image compared to the overall area of the kidneys.
Tissues harvested 21 days following completion of antibiotic therapy were subjected to trichome staining to assess for global collagen deposition. After removing artifacts (to ensure only parenchyma was included in the analysis), a color deconvolution plugin was used for ImageJ to divide the images into the respective three colors of the trichrome stain. A threshold was set and collagen was quantified as a percentage of green color in respect to the area of the entire kidney (FIG. 13).

[11] = administered prior to testicular reperfusion
[12] = administration prior to warm renal ischemia (Gigliotti 2013)

Sequence of α7nAChR (P36544 23-502): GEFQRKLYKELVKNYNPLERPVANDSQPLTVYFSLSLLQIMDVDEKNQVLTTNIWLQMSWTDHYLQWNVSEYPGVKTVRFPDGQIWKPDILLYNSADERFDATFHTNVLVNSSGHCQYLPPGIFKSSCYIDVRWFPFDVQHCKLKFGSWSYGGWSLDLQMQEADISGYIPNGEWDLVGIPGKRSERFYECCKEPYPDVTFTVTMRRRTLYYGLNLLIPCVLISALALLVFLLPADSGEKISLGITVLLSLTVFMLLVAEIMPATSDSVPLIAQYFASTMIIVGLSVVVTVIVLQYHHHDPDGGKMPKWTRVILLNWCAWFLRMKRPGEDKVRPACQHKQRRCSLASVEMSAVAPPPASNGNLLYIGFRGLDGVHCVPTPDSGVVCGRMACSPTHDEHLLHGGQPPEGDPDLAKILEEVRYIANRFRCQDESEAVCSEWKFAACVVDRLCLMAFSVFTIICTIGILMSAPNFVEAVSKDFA

For `Cc1ccc(-c2ncc(Cl)cc2-c2ccc(S(C)(=O)=O)cc2)cn1` [Etoricoxib], the apoptosis [1, 11] is given as “decrease apoptosis” and the oxidative stress [1, 11] is given as “decrease”.

For `CN1CCC[C@H]1c1cccnc1` [nicotine], the “activation of α7nAChR at clinically reached concentrations” value (α7nAChR) is given as “do not activate α7nAChR”, the “expression of adhesion molecules such as E-selectin, ICAM-1 and VCAM-1” value [2] is given as “decreasing the expression of adhesion molecules” and the “protection of the kidney from IRI” value ([3]; mouse, after renal artery ligation (Sadis 2007, Yeboah 2008)) is given as “protects the mouse kidney from IRI”.

For `O=c1cccc2n1C[C@@H]1CNC[C@H]2C1` [cytisine], the “myeloperoxidase activity in testis” value [4] was “decreased levels of myeloperoxidase activity”, the “reduced glutathione levels in testis” value [4] was “increased levels reduced glutathione” and the “relative expression of collagen 1 (Col1)” value [5] was “reduced the expression; also recorded: significantly decreased”. For the same compound, the “relative expression of collagen 3 (Col3)” value [5] was “reduced the expression; also recorded: significantly decreased”, the “relative expression of smooth muscle actin (Sma)” value [5] was “reduced the expression; also recorded: significantly decreased” and the “relative expression of vimentin (Vim)” value [5] was “reduced the expression; also recorded: significantly decreased”. The “relative expression of collagen 1 (Col1)” value ([5]; listed as Cytisine) was “significantly decreased”, the “relative expression of collagen 3 (Col3)” value ([5]; listed as Cytisine) was “significantly decreased” and the “relative expression of smooth muscle actin (Sma)” value ([5]; listed as Cytisine) was “significantly decreased”. The “relative expression of vimentin (Vim)” value ([5]; listed as Cytisine) was “significantly decreased”, the “expression of pro-fibrotic genes / genetic markers of testicular fibrosis” value ([5]; long term (30 day) outcome, genes not itemised) was “decreased expression of pro-fibrotic genes” and the “CD45+ immune cells in the torsed testis” value [6] was “significantly decreased CD45+ immune cells; also recorded: decreases the number of CD45+ cells”. The “activation of α7nAChR at clinically reached concentrations” value (α7nAChR) was “do not activate α7nAChR”, the “acute immune infiltrate after warm renal ischemia” value [3, 12] was “reduced the acute immune infiltrate” and the “long term renal fibrosis after warm renal ischemia” value [3, 12] was “prevented long term renal fibrosis”. The “long term renal function after warm renal ischemia” value [3, 12] was “preserved long term renal function”, the “testicular atrophy (weight of torsed testis vs contralateral control testis)” value ([7]; drug given an hour after the onset of torsion) was “limited long term testicular atrophy” and the “testicular atrophy (weight of torsed testis vs contralateral control testis)” value ([7]; drug given an hour after the onset of torsion, listed as Cytisine) was “limited testicular atrophy”. The “testicular atrophy (weight of torsed testis vs contralateral control testis)” value ([7]; drug given an hour prior to torsion, p<0.05) was “significantly less testicular atrophy; also recorded: decreased testicular atrophy”, the “collagen content of testis (trichrome staining, percentage of collagen)” value [8] was “untreated group had significantly higher collagen content; also recorded: reduced histologic evidence of testicular fibrosis” and the “collagen content of testis (trichrome staining, percentage of collagen)” value ([8]; listed as Cytisine) was “significantly higher percentage of collagen in the untreated animals”.

In the case of `CO/N=C(\C(=O)N[C@@H]1C(=O)N2C(C(=O)O)=C(CSc3nc(=O)c(=O)[nH]n3C)CS[C@H]12)c1csc(N)n1` [ceftriaxone], the “bacterial growth from cultured kidneys” value [9] is reported as “lack of bacterial growth” and the “collagen deposition in the kidneys (percentage of green pigment per area of entire kidney)” value [10] is reported as “significantly higher”.

For `[Zn]` [Zinc], the testicular myeloperoxidase activity [1] is given as “decrease testicular myeloperoxidase activity” and the long term spermatogenesis [1] is given as “preserve long term spermatogenesis”.

In the case of `COc1cc(C(C)=O)ccc1O` [Apocynin], the testicular myeloperoxidase activity [1] is given as “decrease testicular myeloperoxidase activity” and the long term spermatogenesis [1] is given as “preserve long term spermatogenesis”.
